{"source": "patent US20260053861A1", "about": "“CELL COMPOSITIONS AND METHODS OF USING THE SAME” (THE REGENTS OF THE UNIVERSITY OF CALIFORNIA, priority 2022, published 2026)", "note": "Structures can show the parent of a compound that is named as a salt."}
{"test_system": "hPSC-SCs", "conditions": "not given"}
{"smiles": "CCCCc1ccc(C(=O)O)nc1", "note": "[Fusaric acid]", "z.score.t": 1.345}
{"smiles": "NCC1(CC(=O)O)CCCCC1", "note": "[Gabapentin]", "z.score.t": "−0.496"}
{"smiles": "COc1ccc2c3c1O[C@H]1C[C@@H](O)C=C[C@@]31CCN(C)C2", "note": "[Galanthamine hydrobromide]", "z.score.t": 0.8023}
{"smiles": "C=C[C@]12CN(C)[C@@H]3[C@H]4CO[C@H](C[C@H]41)[C@]1(C(=O)Nc4ccccc41)[C@@H]32", "note": "[Gelsemine]", "z.score.t": 1.601}
{"smiles": "C[C@@H]1C(=O)O[C@H]2C[C@@]34[C@H]5C[C@@H](C(C)(C)C)[C@]36[C@@H](OC(=O)[C@@H]6O)O[C@@]4(C(=O)O5)[C@]21O", "note": "[Ginkgolide A]", "z.score.t": 1.034}
{"smiles": "O=C(OCC(O)CO)c1ccccc1Nc1ccnc2cc(Cl)ccc12", "note": "(centres unmarked) [Glafenine hydrochloride]", "z.score.t": "−0.727"}
{"smiles": "CCC1(c2ccc(N)cc2)CCC(=O)NC1=O", "note": "(centres unmarked) [Glutethimide, para-amino]", "z.score.t": 0.1149}
{"smiles": "Cc1cc2c(C(C)C)c(O)c(O)c(C=O)c2c(O)c1-c1c(C)cc2c(C(C)C)c(O)c(O)c(C=O)c2c1O", "note": "[Gossypol]", "z.score.t": "−2.368"}
{"smiles": "COc1ccc2c3c([nH]c2c1)C(C)=NCC3.Cl.O.O", "note": "[Harmaline hydrochloride dihydrate]", "z.score.t": 1.306}
{"smiles": "COc1ccc2c(c1)[nH]c1c(C)nccc12.Cl", "note": "[Harmine hydrochloride]", "z.score.t": "−1.122"}
{"smiles": "Cc1[nH]ccc2c1[nH]c1cc(=O)ccc12", "note": "[Harmol hydrochloride monohydrate]", "z.score.t": "−0.7233"}
{"smiles": "CO[C@H](C)[C@](O)(C(=O)OCC1=CCN2CC[C@H](O)[C@@H]12)C(C)C", "note": "[Heliotrine]", "z.score.t": "−0.3023"}
{"smiles": "C[N+]1(C)CCOC(O)(c2ccc(-c3ccc(C4(O)C[N+](C)(C)CCO4)cc3)cc2)C1.[Br-].[Br-]", "note": "(centres unmarked) [Hemicholinium bromide]", "z.score.t": "−0.07901"}
{"smiles": "COc1ccc([C@@H]2CC(=O)c3c(O)cc(O[C@@H]4O[C@H](CO[C@@H]5O[C@@H](C)[C@H](O)[C@@H](O)[C@H]5O)[C@@H](O)[C@H](O)[C@H]4O)cc3O2)cc1O", "note": "[Hesperidin]", "z.score.t": 0.2399}
{"smiles": "C[N+](C)(C)CCCCCC[N+](C)(C)C.O.O.[Br-].[Br-]", "note": "[Hexamethonium dibromide dihydrate]", "z.score.t": 0.7913}
{"smiles": "CN1CCC2=C[C@H](O)[C@H]3OC(=O)c4cc5c(cc4[C@H]3[C@@H]21)OCO5", "note": "[Hippeastrine hydrobromide]", "z.score.t": 1.178}
{"smiles": "CN1CCCN(C(c2ccccc2)c2ccc(Cl)cc2)CC1", "note": "(centres unmarked) [Homochlorcyclizine dihydrochloride]", "z.score.t": "−1.66"}
{"smiles": "COc1ccc2c(c1OC)C(=O)O[C@@H]2[C@H]1c2cc3c(cc2CCN1C)OCO3", "note": "[Hydrastine hydrochloride]", "z.score.t": "−0.4139"}
{"smiles": "CN1[C@@H]2CC[C@H]1C[C@@H](OC(=O)[C@H](CO)c1ccccc1)C2", "note": "[Hyoscyamine (L)]", "z.score.t": "−0.528"}
{"smiles": "O=C(NCNC(=O)NC1C(=O)NC(=O)N1CO)NC1C(=O)NC(=O)N1CO", "note": "(centres unmarked) [Imidurea]", "z.score.t": 1.224}
{"test_system": "hPSC-SCs", "conditions": "HTS viability of hPSC-SCs in the presence of 30 mM glucose; Prestwick library; Table S4"}
{"smiles": "CC(C)n1c(/C=C/C(O)CC(O)CC(=O)O)c(-c2ccc(F)cc2)c2ccccc21", "note": "(centres unmarked) [Fluvastatin sodium salt]", "z.score.t": "−0.4538"}
{"smiles": "COCCCC/C(=N\\OCCN)c1ccc(C(F)(F)F)cc1", "note": "[Fluvoxamine maleate]", "z.score.t": 0.03957}
{"smiles": "Nc1nc2ncc(CNc3ccc(C(=O)N[C@@H](CCC(=O)O)C(=O)O)cc3)nc2c(=O)[nH]1", "note": "[Folic acid]", "z.score.t": 0.7312}
{"smiles": "Nc1nc(=O)c2c([nH]1)NCC(CNc1ccc(C(=O)N[C@@H](CCC(=O)[O-])C(=O)[O-])cc1)N2C=O.[Ca+2]", "note": "(some centres unmarked) [Folinic acid calcium salt]", "z.score.t": 0.1244}
{"smiles": "O=C(O)c1ccccc1OP(=O)(O)O", "note": "[Fosfosal]", "z.score.t": 0.495}
{"smiles": "O=C1OC(CN2CCOCC2)CN1/N=C/c1ccc([N+](=O)[O-])o1", "note": "(centres unmarked) [Furaltadone hydrochloride]", "z.score.t": 2.34}
{"smiles": "NS(=O)(=O)c1cc(C(=O)O)c(NCc2ccco2)cc1Cl", "note": "[Furosemide]", "z.score.t": "−1.306"}
{"smiles": "CC(=O)O[C@H]1C[C@@]2(C)[C@@H](C[C@@H](O)[C@H]3[C@@]4(C)CC[C@@H](O)[C@@H](C)[C@@H]4CC[C@@]32C)/C1=C(\\CCC=C(C)C)C(=O)O", "note": "[Fusidic acid sodium salt]", "z.score.t": 0.6203}
{"smiles": "Fc1ccc(C(OCCN2CCN(CCCc3ccccc3)CC2)c2ccc(F)cc2)cc1", "note": "[GBR 12909 dihydrochloride]", "z.score.t": "−1.092"}
{"smiles": "COc1ccc(-c2ccc(=N)n(CCCC(=O)O)n2)cc1", "note": "[Gabazine]", "z.score.t": 1.252}
{"smiles": "CCOC(=O)c1ccc(OC(=O)CCCCCN=C(N)N)cc1.CS(=O)(=O)O", "note": "[Gabexate mesilate]", "z.score.t": 0.5136}
{"smiles": "CC[N+](CC)(CC)CCOc1cccc(OCC[N+](CC)(CC)CC)c1OCC[N+](CC)(CC)CC", "note": "[Gallamine triethiodide]", "z.score.t": "−0.1538"}
{"smiles": "Nc1nc(O)c2ncn(COC(CO)CO)c2n1", "note": "[Ganciclovir]", "z.score.t": "−0.5992"}
{"smiles": "Cc1ccc(C)c(OCCCC(C)(C)C(=O)O)c1", "note": "[Gemfibrozil]", "z.score.t": 0.4486}
{"smiles": "C=C1C[C@]23C[C@@]1(O)CC[C@H]2[C@@]12C=C[C@H](O)[C@@](C)(C(=O)O1)[C@H]2[C@@H]3C(=O)O", "note": "[Gibberellic acid]", "z.score.t": "−0.3452"}
{"smiles": "COc1ccc(Cl)cc1C(=O)NCCc1ccc(S(=O)(=O)NC(=O)NC2CCCCC2)cc1", "note": "[Glibenclamide]", "z.score.t": "−0.7776"}
{"smiles": "Cc1ccc(S(=O)(=O)NC(=O)NN2CC3CCCC3C2)cc1", "note": "(centres unmarked) [Gliclazide]", "z.score.t": "−0.03629"}
{"smiles": "CCC1=C(C)CN(C(=O)NCCc2ccc(S(=O)(=O)NC(=O)N[C@H]3CC[C@H](C)CC3)cc2)C1=O", "note": "[Glimepiride]", "z.score.t": 1.252}
{"smiles": "Cc1cnc(C(=O)NCCc2ccc(S(=O)(=O)NC(=O)NC3CCCCC3)cc2)cn1", "note": "[Glipizide]", "z.score.t": 1.43}
{"smiles": "COc1ccc2c(c1)C(=O)N(CCc1ccc(S(=O)(=O)NC(=O)NC3CCCCC3)cc1)C(=O)C2(C)C", "note": "[Gliquidone]", "z.score.t": 2.369}
{"smiles": "C[C@H](CCC(=O)NCC(=O)O)[C@H]1CC[C@H]2[C@@H]3[C@H](O)C[C@@H]4C[C@H](O)CC[C@]4(C)[C@H]3C[C@H](O)[C@]12C", "note": "[Glycocholic acid]", "z.score.t": "−0.8478"}
{"smiles": "C[N+]1(C)CCC(OC(=O)C(O)(c2ccccc2)C2CCCC2)C1", "note": "(centres unmarked) [Glycopyrrolate]", "z.score.t": "−0.1913"}
{"smiles": "CN(C)Cc1c[nH]c2ccccc12", "note": "[Gramine]", "z.score.t": 1.018}
{"smiles": "Cn1c(-c2ccc3c(c2)OCO3)cc(=O)c2ccccc21", "note": "[Graveoline]", "z.score.t": 0.495}
{"smiles": "COC1=CC(=O)C[C@@H](C)[C@]12Oc1c(Cl)c(OC)cc(OC)c1C2=O", "note": "[Griseofulvin]", "z.score.t": "−0.636"}
{"smiles": "COc1ccccc1OCC(O)CO", "note": "(centres unmarked) [Guaifenesin]", "z.score.t": "−0.3023"}
{"smiles": "N=C(N)N/N=C/c1c(Cl)cccc1Cl", "note": "[Guanabenz acetate]", "z.score.t": 0.5179}
{"smiles": "N=C(N)NC(=O)Cc1c(Cl)cccc1Cl", "note": "[Guanfacine hydrochloride]", "z.score.t": 0.9047}
{"smiles": "CC1(C)O[C@@H]2C[C@H]3[C@@H]4CCC5=CC(=O)CC[C@]5(C)[C@@]4(F)[C@@H](O)C[C@]3(C)[C@]2(C(=O)CCl)O1", "note": "[Halcinonide]", "z.score.t": 1.238}
{"smiles": "CCCCN(CCCC)CCC(O)c1cc2c(Cl)cc(Cl)cc2c2cc(C(F)(F)F)ccc12", "note": "(centres unmarked) [Halofantrine hydrochloride]", "z.score.t": "−1.422"}
{"smiles": "O=C(CCCN1CCC(O)(c2ccc(Cl)cc2)CC1)c1ccc(F)cc1", "note": "[Haloperidol]", "z.score.t": "−1.111"}
{"smiles": "CC1=NCCc2c1[nH]c1cc(O)ccc21.Cl.O.O", "note": "[Harmalol hydrochloride dihydrate]", "z.score.t": "−0.7953"}
{"smiles": "C[C@]1(OC(=O)/C=C/c2ccccc2)C[C@@H](O)[C@]2(O)C=CO[C@@H](O[C@@H]3O[C@H](CO)[C@@H](O)[C@H](O)[C@H]3O)[C@@H]21", "note": "[Harpagoside]", "z.score.t": "−0.8347"}
{"smiles": "CC(N)CCCC(C)(C)O", "note": "(centres unmarked) [Heptaminol hydrochloride]", "z.score.t": 0.7415}
{"smiles": "COc1ccc([C@@H]2CC(=O)c3c(O)cc(O)cc3O2)cc1O", "note": "[Hesperetin]", "z.score.t": 1.785}
{"smiles": "CC[C@H](c1ccc(O)cc1)[C@@H](CC)c1ccc(O)cc1", "note": "[Hexestrol]", "z.score.t": 0.1469}
{"smiles": "CCCCC(CC)CN1CN(CC(CC)CCCC)CC(C)(N)C1", "note": "(centres unmarked) [Hexetidine]", "z.score.t": "−1.372"}
{"smiles": "CC(CNC1CCCCC1)OC(=O)c1ccccc1", "note": "(centres unmarked) [Hexylcaine hydrochloride]", "z.score.t": "−0.6194"}
{"smiles": "CC1CC(OC(=O)c2ccccc2O)CC(C)(C)C1", "note": "(centres unmarked) [Homosalate]", "z.score.t": "−0.751"}
{"smiles": "CCN(CC)CCNc1ccc(CO)c2sc3ccccc3c(=O)c12", "note": "[Hycanthone]", "z.score.t": "−0.2904"}
{"smiles": "NNc1nncc2ccccc12", "note": "[Hydralazine hydrochloride]", "z.score.t": 1.472}
{"smiles": "CN1CCc2cc3c(cc2C1O)OCO3", "note": "(centres unmarked) [Hydrastinine hydrochloride]", "z.score.t": 1.785}
{"smiles": "NS(=O)(=O)c1cc2c(cc1Cl)NCNS2(=O)=O", "note": "[Hydrochlorothiazide]", "z.score.t": 0.1742}
{"smiles": "C[C@]12CCC(=O)C=C1CC[C@@H]1[C@@H]2[C@@H](O)C[C@@]2(C)[C@H]1CC[C@]2(O)C(=O)CO", "note": "[Hydrocortisone base]", "z.score.t": 1.76}
{"smiles": "COc1c2c(cc3c1OCO3)CCN(C)C2", "note": "[Hydrocotarnine hydrobromide]", "z.score.t": 1.168}
{"smiles": "NS(=O)(=O)c1cc2c(cc1C(F)(F)F)NCNS2(=O)=O", "note": "[Hydroflumethiazide]", "z.score.t": "−0.1092"}
{"smiles": "CC[C@H]1CN2CC[C@H]1C[C@H]2[C@H](O)c1ccnc2ccc(OC)cc12", "note": "[Hydroquinine hydrobromide hydrate]", "z.score.t": 0.1131}
{"smiles": "OCCOCCN1CCN(C(c2ccccc2)c2ccc(Cl)cc2)CC1", "note": "(centres unmarked) [Hydroxyzine dihydrochloride]", "z.score.t": "−0.3011"}
{"smiles": "Cc1cc(=O)oc2cc(O)ccc12", "note": "[Hymecromone]", "z.score.t": 0.9525}
{"smiles": "c1ccc2c(c1)OCC(C1=NCCN1)O2", "note": "(centres unmarked) [Idazoxan hydrochloride]", "z.score.t": "−0.03362"}
{"smiles": "O=c1[nH]c(=O)n([C@H]2C[C@H](O)[C@@H](CO)O2)cc1I", "note": "[Idoxuridine]", "z.score.t": 0.8757}
{"smiles": "O=P1(NCCCl)OCCCN1CCCl", "note": "(centres unmarked) [Ifosfamide]", "z.score.t": 0.1469}
{"smiles": "C[C@@H](O)[C@H]1C(=O)N2C(C(=O)O)=C(SCCN=CN)C[C@H]12", "note": "[Imipenem]", "z.score.t": 0.767}
{"smiles": "CN(C)CCCN1c2ccccc2CCc2ccccc21", "note": "[Imipramine hydrochloride]", "z.score.t": "−0.7013"}
{"smiles": "CC1Cc2ccccc2N1NC(=O)c1ccc(Cl)c(S(N)(=O)=O)c1", "note": "(centres unmarked) [Indapamide]", "z.score.t": 0.02534}
{"smiles": "COc1ccc2c(c1)c(CC(=O)O)c(C)n2C(=O)c1ccc(Cl)cc1", "note": "[Indomethacin]", "z.score.t": 1.045}
{"smiles": "CC(C(=O)O)c1ccc(N2Cc3ccccc3C2=O)cc1", "note": "(centres unmarked) [Indoprofen]", "z.score.t": 0.1916}
